Experimental data from BindingDB's records for doi:10.1016/S0893-133X(01)00285-8 (Novartis Pharma, 2001).

Tests used:
[1] = biological target: Gastrin/cholecystokinin type B receptor (Homo sapiens, UniProt P32239)
[2] = biological target: Corticotropin-releasing factor receptor 2 (Homo sapiens) (UniProt Q13324)
[3] = biological target: 5-hydroxytryptamine receptor 3A (Homo sapiens, UniProt P46098)
[4] = biological target: 5-hydroxytryptamine receptor 6 (Homo sapiens, UniProt P50406)
Adenosine receptor A3 = Adenosine receptor A3 (Homo sapiens, UniProt P0DMS8)
Substance-K receptor = Substance-K receptor (Homo sapiens, UniProt P21452)
[5] = biological target: Muscarinic acetylcholine receptor M5 (Homo sapiens, UniProt P08912)
[6] = biological target: Alpha-2A adrenergic receptor (Homo sapiens, UniProt P08913)
[7] = biological target: Muscarinic acetylcholine receptor M1 (Homo sapiens, UniProt P11229)
[8] = biological target: Delta-type opioid receptor (Homo sapiens, UniProt P41143)
[9] = biological target: Kappa-type opioid receptor (Homo sapiens, UniProt P41145)
[10] = biological target: Sodium-dependent dopamine transporter (Homo sapiens, UniProt Q01959)
[11] = biological target: Sodium-dependent noradrenaline transporter (Homo sapiens, UniProt P23975)
[12] = biological target: 5-hydroxytryptamine receptor 7 (Homo sapiens, UniProt P34969)
Cannabinoid receptor 1 = Cannabinoid receptor 1 (Homo sapiens, UniProt P21554)
Adenosine receptor A2a = Adenosine receptor A2a (Homo sapiens, UniProt P29274)
[13] = biological target: Alpha-2B adrenergic receptor (Homo sapiens, UniProt P18089)
[14] = biological target: Beta-1 adrenergic receptor (Homo sapiens, UniProt P08588)
[15] = biological target: Beta-2 adrenergic receptor (Homo sapiens, UniProt P07550)
Adenosine receptor A1 = Adenosine receptor A1 (Homo sapiens, UniProt P30542)
Substance-P receptor = Substance-P receptor (Homo sapiens, UniProt P25103)
Neuromedin-K receptor = Neuromedin-K receptor (Homo sapiens, UniProt P29371)
[16] = biological target: Alpha-2C adrenergic receptor (Homo sapiens, UniProt P18825)
Mu-type opioid receptor = Mu-type opioid receptor (Homo sapiens, UniProt P35372)
[17] = biological target: Muscarinic acetylcholine receptor M3 (Homo sapiens, UniProt P20309)
[18] = biological target: Muscarinic acetylcholine receptor M2 (Homo sapiens, UniProt P08172)
[19] = biological target: Muscarinic acetylcholine receptor M4 (Homo sapiens, UniProt P08173)
Sequence of Muscarinic acetylcholine receptor M4 (P08173 whole entry): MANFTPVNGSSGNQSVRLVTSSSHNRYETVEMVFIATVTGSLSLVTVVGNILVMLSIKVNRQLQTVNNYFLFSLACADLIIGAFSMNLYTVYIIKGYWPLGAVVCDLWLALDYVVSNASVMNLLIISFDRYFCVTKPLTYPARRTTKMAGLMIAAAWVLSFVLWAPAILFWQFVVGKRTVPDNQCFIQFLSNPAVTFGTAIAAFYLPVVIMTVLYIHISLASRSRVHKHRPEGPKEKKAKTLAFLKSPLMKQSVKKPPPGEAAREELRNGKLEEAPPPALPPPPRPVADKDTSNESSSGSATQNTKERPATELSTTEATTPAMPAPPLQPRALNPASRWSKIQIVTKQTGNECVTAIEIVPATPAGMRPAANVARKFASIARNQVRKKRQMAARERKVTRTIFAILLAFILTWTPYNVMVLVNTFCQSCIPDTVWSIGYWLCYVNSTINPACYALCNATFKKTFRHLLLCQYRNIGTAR

Sequence of 5-hydroxytryptamine receptor 3A (P46098 whole entry): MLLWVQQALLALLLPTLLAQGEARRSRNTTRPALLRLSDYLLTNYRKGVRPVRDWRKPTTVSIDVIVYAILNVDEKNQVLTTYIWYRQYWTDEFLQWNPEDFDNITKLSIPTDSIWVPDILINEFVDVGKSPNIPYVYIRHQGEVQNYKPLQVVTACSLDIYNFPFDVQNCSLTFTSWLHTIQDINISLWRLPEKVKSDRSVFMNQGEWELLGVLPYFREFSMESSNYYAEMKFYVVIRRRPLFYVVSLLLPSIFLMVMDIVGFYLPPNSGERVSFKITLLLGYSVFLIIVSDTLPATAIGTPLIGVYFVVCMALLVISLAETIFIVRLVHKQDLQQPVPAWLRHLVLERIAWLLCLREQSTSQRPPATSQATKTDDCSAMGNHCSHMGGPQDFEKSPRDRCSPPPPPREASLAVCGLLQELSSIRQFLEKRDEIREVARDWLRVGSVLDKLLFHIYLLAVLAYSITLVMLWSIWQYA
Sequence of Delta-type opioid receptor (P41143 whole entry): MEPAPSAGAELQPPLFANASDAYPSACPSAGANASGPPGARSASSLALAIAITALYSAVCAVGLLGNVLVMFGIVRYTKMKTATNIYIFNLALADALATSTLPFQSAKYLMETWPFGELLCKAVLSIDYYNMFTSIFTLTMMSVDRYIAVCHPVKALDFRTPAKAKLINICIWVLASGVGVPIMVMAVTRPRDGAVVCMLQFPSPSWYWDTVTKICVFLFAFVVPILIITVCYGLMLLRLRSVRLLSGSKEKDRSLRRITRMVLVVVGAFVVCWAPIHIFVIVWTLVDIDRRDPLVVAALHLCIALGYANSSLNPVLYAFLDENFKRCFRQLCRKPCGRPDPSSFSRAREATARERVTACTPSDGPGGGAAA
Sequence of Gastrin/cholecystokinin type B receptor (P32239 whole entry): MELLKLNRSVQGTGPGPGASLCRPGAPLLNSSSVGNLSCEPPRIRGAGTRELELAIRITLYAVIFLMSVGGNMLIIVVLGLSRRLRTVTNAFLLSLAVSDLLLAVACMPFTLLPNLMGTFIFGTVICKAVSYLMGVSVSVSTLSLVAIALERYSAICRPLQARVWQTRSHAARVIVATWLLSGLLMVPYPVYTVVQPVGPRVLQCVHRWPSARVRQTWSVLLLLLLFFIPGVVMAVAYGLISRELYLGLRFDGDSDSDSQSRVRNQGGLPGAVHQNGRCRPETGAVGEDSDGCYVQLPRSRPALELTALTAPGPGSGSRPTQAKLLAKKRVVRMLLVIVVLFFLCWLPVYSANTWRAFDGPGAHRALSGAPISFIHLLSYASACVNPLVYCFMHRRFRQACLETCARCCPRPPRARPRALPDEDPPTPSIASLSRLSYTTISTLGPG
Sequence of Substance-P receptor (P25103 whole entry): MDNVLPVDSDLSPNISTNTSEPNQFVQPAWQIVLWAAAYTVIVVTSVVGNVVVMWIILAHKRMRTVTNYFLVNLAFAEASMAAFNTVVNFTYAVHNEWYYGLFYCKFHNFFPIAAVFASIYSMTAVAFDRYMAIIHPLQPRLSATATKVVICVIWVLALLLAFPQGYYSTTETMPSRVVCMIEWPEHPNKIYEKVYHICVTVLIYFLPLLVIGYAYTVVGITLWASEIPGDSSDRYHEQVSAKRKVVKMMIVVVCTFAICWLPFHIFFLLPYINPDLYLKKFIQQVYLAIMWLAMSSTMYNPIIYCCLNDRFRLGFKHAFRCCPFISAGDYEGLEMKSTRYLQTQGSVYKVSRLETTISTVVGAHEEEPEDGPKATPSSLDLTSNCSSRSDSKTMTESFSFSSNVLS
Sequence of Alpha-2C adrenergic receptor (P18825 whole entry): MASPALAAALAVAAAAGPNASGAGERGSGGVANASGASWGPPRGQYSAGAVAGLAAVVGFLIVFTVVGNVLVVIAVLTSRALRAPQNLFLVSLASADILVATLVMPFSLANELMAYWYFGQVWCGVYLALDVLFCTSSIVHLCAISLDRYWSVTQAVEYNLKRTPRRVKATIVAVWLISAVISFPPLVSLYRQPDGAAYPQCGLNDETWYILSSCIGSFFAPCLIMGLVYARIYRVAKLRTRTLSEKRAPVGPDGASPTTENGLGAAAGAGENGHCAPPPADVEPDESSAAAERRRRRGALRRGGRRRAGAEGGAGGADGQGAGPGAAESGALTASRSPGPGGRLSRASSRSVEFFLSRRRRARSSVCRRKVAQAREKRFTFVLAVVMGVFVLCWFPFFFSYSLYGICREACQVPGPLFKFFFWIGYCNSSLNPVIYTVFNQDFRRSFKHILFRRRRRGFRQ
Sequence of Beta-1 adrenergic receptor (P08588 whole entry): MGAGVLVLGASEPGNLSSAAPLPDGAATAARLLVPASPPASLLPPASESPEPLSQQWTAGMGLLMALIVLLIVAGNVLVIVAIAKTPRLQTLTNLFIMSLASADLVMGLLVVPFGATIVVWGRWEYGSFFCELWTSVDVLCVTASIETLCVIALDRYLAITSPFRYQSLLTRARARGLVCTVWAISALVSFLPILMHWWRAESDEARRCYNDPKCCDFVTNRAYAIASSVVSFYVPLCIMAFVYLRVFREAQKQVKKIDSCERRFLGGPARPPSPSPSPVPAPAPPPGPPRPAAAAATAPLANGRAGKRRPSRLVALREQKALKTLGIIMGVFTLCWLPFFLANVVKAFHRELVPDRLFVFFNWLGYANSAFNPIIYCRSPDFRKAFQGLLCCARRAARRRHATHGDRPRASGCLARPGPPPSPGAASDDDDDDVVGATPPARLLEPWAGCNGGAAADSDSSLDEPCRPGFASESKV
Sequence of Beta-2 adrenergic receptor (P07550 whole entry): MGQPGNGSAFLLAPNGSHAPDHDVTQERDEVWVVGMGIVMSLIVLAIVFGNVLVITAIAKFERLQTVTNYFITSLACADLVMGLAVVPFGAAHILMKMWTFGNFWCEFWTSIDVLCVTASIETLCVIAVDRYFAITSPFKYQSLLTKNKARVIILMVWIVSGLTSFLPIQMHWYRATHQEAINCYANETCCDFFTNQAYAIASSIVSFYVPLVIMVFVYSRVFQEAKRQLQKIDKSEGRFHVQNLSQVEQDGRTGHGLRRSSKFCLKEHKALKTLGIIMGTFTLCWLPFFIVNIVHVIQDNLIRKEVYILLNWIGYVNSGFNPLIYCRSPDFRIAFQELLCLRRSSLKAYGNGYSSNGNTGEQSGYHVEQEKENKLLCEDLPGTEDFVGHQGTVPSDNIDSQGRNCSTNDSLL
Sequence of Muscarinic acetylcholine receptor M1 (P11229 whole entry): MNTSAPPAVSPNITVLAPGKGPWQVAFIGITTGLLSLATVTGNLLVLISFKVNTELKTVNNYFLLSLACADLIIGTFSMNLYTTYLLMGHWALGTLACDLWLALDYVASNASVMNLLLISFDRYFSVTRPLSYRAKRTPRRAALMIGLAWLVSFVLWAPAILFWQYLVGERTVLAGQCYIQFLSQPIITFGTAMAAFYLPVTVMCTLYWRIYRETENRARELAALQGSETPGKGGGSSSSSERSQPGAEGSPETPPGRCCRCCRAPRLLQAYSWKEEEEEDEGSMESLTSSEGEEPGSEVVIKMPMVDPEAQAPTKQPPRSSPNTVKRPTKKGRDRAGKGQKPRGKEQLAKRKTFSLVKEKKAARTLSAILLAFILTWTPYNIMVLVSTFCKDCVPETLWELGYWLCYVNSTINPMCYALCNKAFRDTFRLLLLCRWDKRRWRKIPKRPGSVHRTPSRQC
Sequence of Sodium-dependent noradrenaline transporter (P23975 whole entry): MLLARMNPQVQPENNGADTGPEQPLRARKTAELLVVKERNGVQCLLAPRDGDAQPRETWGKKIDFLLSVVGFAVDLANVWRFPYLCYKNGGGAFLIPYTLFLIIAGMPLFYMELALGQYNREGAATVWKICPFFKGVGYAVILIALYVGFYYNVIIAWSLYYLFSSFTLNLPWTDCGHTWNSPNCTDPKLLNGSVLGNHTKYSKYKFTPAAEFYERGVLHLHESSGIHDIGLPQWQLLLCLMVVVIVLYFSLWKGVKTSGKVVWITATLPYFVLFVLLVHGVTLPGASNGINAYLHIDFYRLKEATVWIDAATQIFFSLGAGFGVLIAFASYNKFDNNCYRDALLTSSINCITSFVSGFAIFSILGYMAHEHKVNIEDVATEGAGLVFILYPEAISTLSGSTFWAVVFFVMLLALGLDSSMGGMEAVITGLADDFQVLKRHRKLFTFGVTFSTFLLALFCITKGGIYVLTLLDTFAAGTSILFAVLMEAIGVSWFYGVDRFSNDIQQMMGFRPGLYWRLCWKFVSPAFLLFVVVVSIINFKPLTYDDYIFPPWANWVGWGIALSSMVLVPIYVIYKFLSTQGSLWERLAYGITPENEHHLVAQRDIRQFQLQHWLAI
Sequence of Adenosine receptor A3 (P0DMS8 whole entry): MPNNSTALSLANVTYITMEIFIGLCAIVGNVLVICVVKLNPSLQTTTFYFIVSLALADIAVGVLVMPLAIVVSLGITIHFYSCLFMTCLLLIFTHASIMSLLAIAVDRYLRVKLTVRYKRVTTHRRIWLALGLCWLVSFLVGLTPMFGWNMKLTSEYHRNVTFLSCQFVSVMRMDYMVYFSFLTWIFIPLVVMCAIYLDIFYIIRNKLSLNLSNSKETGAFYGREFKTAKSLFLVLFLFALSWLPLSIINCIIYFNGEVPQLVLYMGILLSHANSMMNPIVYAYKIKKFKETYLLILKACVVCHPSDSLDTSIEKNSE

COc1cc(C(C)=O)ccc1OCCCN1CCC(c2noc3cc(F)ccc23)CC1
Ki [1]: 9.33 µM | Ki [2]: > 10 µM | Ki [3]: > 10 µM | Ki [4]: 0.0631 µM | Ki (Adenosine receptor A3): > 10 µM | Ki (Substance-K receptor): > 10 µM | Ki [5]: > 10 µM | Ki [6]: 0.162 µM | Ki [7]: 4.9 µM | Ki [8]: > 10 µM | Ki [9]: > 10 µM | Ki [10]: 2.95 µM | Ki [11]: 1.48 µM | Ki [12]: 0.112 µM | Ki (Cannabinoid receptor 1): > 10 µM | Ki (Adenosine receptor A2a): > 10 µM | Ki [13]: 0.162 µM | Ki [14]: > 10 µM | Ki [15]: > 10 µM | Ki (Adenosine receptor A1): > 10 µM | Ki (Substance-P receptor): > 10 µM | Ki (Neuromedin-K receptor): > 10 µM | Ki [16]: 0.0162 µM | Ki (Mu-type opioid receptor): > 10 µM | Ki [17]: > 10 µM | Ki [18]: 3.31 µM | Ki [19]: 8.32 µM
